From patent US20140128402A1, “PHARMACEUTICAL COMBINATION” (IPCA Laboratories Limited, priority 2011, published 2014)

Test system: STZ-induced diabetic rats
Test: Study No 1: blood glucose in STZ-induced diabetic rats (HCQ with sitagliptin)
Format: in vivo, Wistar rats
Experimental: In this experiment 48 Wistar rats weighing 130-150 g of either sex were divided randomly into 8 groups consisting of 6 rats each. The study drugs suspended in vehicle [0.1% w/v suspension of Tween 80 and carboxymethylcellulose (CMC) in water] were administered for orally for 21 days. Group 1 (normal vehicle control) consisted of normal rats that neither received streptozotocin nor any test drug; Group 2 served as streptozotocin induced diabetic control (Diabetes was induced in rats by single administration of streptozotocin (60 mg/kg/i.p) dissolved in 0.1 M-citrate buffer, pH 4.5). Forty-eight hours later, blood samples were collected and glucose levels were determined to confirm the development of diabetes.
Blood glucose level was measured in normal and experimental rats at 1st, 7th, 14th and 21st day of administration. For other biochemical parameters i.e. Insulin, HbA1c, Triglycerides, Total Cholesterol, HDL, SGOT, SGPT, Total Protein, Albumin, Creatinine and Urea Blood samples were collected 1 h after the last dose administration from 18 h fasted rats through the retro-orbital plexus under chloroform anesthesia and analyzed using autoanalyzer (Microlab 2000). Other parameters like body weight, food intake and water intake were evaluated weekly till day 21st.

Molecule `CCN(CCO)CCCC(C)Nc1ccnc2cc(Cl)ccc12` (stereo not drawn) [HCQ, Hydroxychloroquine] has a Plasma glucose concentration (1st day, subtherapeutic dose: STG 5.5, HCQ 23, STG+HCQ 5.5+23 mg/kg oral) of 253.33 ± 24.86 mg/dL, a Plasma glucose concentration (1st day, therapeutic dose: STG 11, HCQ 46, STG+HCQ 11+46 mg/kg oral) of 267.83 ± 10.53 mg/dL and a Plasma glucose concentration (7th day, subtherapeutic dose: STG 5.5, HCQ 23, STG+HCQ 5.5+23 mg/kg oral) of 248.67 ± 24.63 mg/dL. For the same molecule, the Plasma glucose concentration (7th day, therapeutic dose: STG 11, HCQ 46, STG+HCQ 11+46 mg/kg oral) was 243.83 ± 10.78 mg/dL, the Plasma glucose concentration (14th day, subtherapeutic dose: STG 5.5, HCQ 23, STG+HCQ 5.5+23 mg/kg oral) was 241.33 ± 24.73 mg/dL and the Plasma glucose concentration (14th day, therapeutic dose: STG 11, HCQ 46, STG+HCQ 11+46 mg/kg oral, 46 mg/kg) was 230.00 ± 12.96 mg/dL. For the same molecule, the Plasma glucose concentration (14th day, therapeutic dose: STG 11, HCQ 46, STG+HCQ 11+46 mg/kg oral, listed as hydroxychloroquine, 46 mg/kg) was “significant improvement”, the Plasma glucose concentration (21st day, subtherapeutic dose: STG 5.5, HCQ 23, STG+HCQ 5.5+23 mg/kg oral) was 232.00 ± 19.92 mg/dL and the Plasma glucose concentration (21st day, therapeutic dose: STG 11, HCQ 46, STG+HCQ 11+46 mg/kg oral) was 207.67 ± 7.53 mg/dL.
